Laboratory results taken from patent US20190125753A1, “COMPOUNDS AND METHODS FOR INCREASING HEMATOPOIESIS” (University of Southern California, priority 2016, published 2019).

Columns and labels:
[1] = system: Human survivin promoter; experiment: Survivin/luciferase reporter (Survivin-Hek-293); format: cell-based; settings: Homo sapiens; Survivin-Hek-293, 24 hours; read-out: survivin/luciferase reporter: did not inhibit up to
Method: Hek293 cells were stably transfected with plasmid that contains multiple TCF/LEF fragments in front of Luciferase gene. Wnt/β-catenin activity was determined from luciferase expression levels. […] Briefly, stably transfected Hek-293, STFI.1 (Wnt/β-catenin-driven luciferase) and Survivin-Hek-293 (1 Kb Human survivin promoter-driven luciferase) cells were maintained in DMEM, 10% FBS, Pen/Strep with 400 μg/mL G418 or 2 μg/mL puromycin, respectively. To check the activity of ICG-001, YH249, and YH250, the cells were split into white-opaque 96-well plates at 10,000 cells per well and allowed to attach overnight. For SuperTOPLASH, the inhibitors were added to the cells and pre-incubated for 1 hour prior to stimulation with 10 mM Li Cl for 24 hours. Luciferase activity was read using BrightGlo (Promnega) luciferase substrate. For survivin/luc, the inhibitors were added to the cells and incubated for 24 hours prior to readout. To calculate IC5o values, the resulting curve was fitted to a four-parameter logistic model (4PL) using GraphPad Prism 5 software.
B. Survivin Expression Level: The Secondary Screen.
An endogenous human survivin 1 kb promoter was inserted before a luciferase gene. […] R1 and R2 were diversified in this study. Percent inhibition of luciferase activity was calculated according to the following equations; % inhibition of STF 1.1 reporter activity=(I−RLU(10 mM LiCl) treated/RLU(10 omM LiCl) vehicle×control)100, % inhibition of Survivin reporter activity=(1−RLUtreated/RLU vehicle control)×100. Error bars indicate the mean±SE of 3 separate experiments. Selectivity (FIG. 2H) was calculated by IC50 value for Survivin-Hek-293/IC50 value for STF 1.1.

[2] = target: T1, p300/γ-catenin interaction (Mus musculus, UniProt B2RWS6); experiment: Co-IP of bone marrow Sca-1posit cells from treated mice (anti-p300); format: in vivo; settings: YH250 2 mg/kg subcutaneously, 24 hrs
T1 construct: bone marrow Sca-1posit cells were isolated with Anti-Sca-1 microbeads; from tissue; host or cells: bone marrow Sca-1 positive cells of female C57/Black mice dosed in vivo
Method: YH250 was used in this study. Female C57/Black mice were administrated with either DMSO (solvent control) or YH250 (2 mg/kg) subcutaneously. 24 hrs later, bone marrow Sca-1posit cells were isolated with Anti-Sca-1 microbeads (Miltenyi Biotec, Cat#130-092-529) for co-immunoprecipitation (FIG. 4A). Cells were then lysed and incubated with either anti-CBP (A22) or anti-p300 (C20) antibodies. Then, the immunoprecipitation complex were electrophoresed and detected with antibodies to either β-catenin or γ-catenin. […] This confirms that YH250 directly disrupts the p300/catenin interaction thereby enhancing the CBP/catenin interaction in HSPCs.

[3] = system: long-term repopulating HSC; experiment: HSC differentiation assay (LTR-HSC from treated mice co-cultured with GFP bone marrow cells); format: in vivo, mouse; settings: 2 mg/kg, 24 hours, then 2.5-3 days co-culture
Method: DMSO or YH250 (2 mg/kg) were administrated to female C57/BL mice. (Mice were purchased from JAX stock#000664 for CD45.2 or Stock#002014 for CD45.1). 24 hours later, long-term repopulating HSC (LTR-HSC, Lin-negt/Sca-1-posit/c-kit-posit/CD34negt/CD135negt/CD48negt/CD150posit cells were purified with fluorescent flow cytometry sorting (FACS). Then, the purified cells were co-cultured with whole bone marrow cells isolated from GFP-transgenic mice (C57BL/6Tg-UBC-GFP, JAX stock#004353), which serves as supporting system in stem cell medium (Stemspan, Stemcell Technologies, Cat#9650) supplemented with SCF (stem cell factor 10 ng/ml) and TPO (thrombopoietin, 10 ng/ml). 2.5-3 days after co-culture, cells were harvested and analyzed for surface markers of CD48 and CD202b (Tie-2) (FIG. 7A).

[4] = system: cord blood cells; experiment: Cord blood cell repopulation in NSG mice; format: in vivo, human; settings: day 57 post BMT
From the text: FIG. 11A depicts the experimental procedure.

[5] = system: LTR-HSC (LSKCD34−CD135−CD150+ cells); experiment: BrdU incorporation in bone marrow HSPC in vivo; set-up: species or system mouse; settings: 24 or 48 hrs post administration
From the text: P300/-catenin antagonists stimulate HSPC proliferation both in vitro and in vivo. In this study, 24 or 48 hrs post either DMSO or YH250 administration, BrdU was given to animals and bone marrow cells were isolated and analyzed to determine HSPC proliferation (FIG. 15A). Bone marrow cells were stained with antibodies to lineage markers (CD3, CD4, CD8, B220, CD16, Gr-1, Mac-1), antibodies to Sca-1, c-kit, CD135, CD34, CD150 and BrdU.

[6] = system: bone marrow HSPC; experiment: HSPC proliferation in 7Gy irradiated mice (BrdU, cell cycle, FACS); format: in vivo, mouse
Method: YH250 was also tested for stimulation of HSPC (hematopoietic stem/progenitor population) proliferation in irradiated animals. In this study, mice received 7Gy whole body radiation, DMSO or YH250 (s.c., 2 mg/Kg) were administrated 24 hours post radiation, followed with BrdU injection. FIG. 17A depicts the experimental procedure. […] Then, YH250 was administrated to 7Gy irradiated animals and 4 days later, bone marrow cells were isolated for FACS analysis for HSC markers (FIG. 17E).

[7] = system: 7Gy irradiated animals; experiment: Peripheral blood count and body weight recovery after 7Gy radiation; format: in vivo
Method: YH250 was then tested for stimulating blood count recovery in irradiated animals. In this experiment, animals received 7Gy whole body radiation and then, either YH250 or DMSO was administrated 24 hours post radiation. Animal body weight and peripheral blood counts were measured to monitor hematopoietic recovery (FIGS. 20A-20B). […] It is worth noting that it is a full lineage blood cell count recovery, including white blood cell (lymphocyte, monocyte and neutrophil), red blood cell and platelet (FIG. 20C). The neutrophil and platelet recovery is most significant.

[8] = administered 24 hours post radiation

T1 sequence (B2RWS6 2-2412 limits assumed): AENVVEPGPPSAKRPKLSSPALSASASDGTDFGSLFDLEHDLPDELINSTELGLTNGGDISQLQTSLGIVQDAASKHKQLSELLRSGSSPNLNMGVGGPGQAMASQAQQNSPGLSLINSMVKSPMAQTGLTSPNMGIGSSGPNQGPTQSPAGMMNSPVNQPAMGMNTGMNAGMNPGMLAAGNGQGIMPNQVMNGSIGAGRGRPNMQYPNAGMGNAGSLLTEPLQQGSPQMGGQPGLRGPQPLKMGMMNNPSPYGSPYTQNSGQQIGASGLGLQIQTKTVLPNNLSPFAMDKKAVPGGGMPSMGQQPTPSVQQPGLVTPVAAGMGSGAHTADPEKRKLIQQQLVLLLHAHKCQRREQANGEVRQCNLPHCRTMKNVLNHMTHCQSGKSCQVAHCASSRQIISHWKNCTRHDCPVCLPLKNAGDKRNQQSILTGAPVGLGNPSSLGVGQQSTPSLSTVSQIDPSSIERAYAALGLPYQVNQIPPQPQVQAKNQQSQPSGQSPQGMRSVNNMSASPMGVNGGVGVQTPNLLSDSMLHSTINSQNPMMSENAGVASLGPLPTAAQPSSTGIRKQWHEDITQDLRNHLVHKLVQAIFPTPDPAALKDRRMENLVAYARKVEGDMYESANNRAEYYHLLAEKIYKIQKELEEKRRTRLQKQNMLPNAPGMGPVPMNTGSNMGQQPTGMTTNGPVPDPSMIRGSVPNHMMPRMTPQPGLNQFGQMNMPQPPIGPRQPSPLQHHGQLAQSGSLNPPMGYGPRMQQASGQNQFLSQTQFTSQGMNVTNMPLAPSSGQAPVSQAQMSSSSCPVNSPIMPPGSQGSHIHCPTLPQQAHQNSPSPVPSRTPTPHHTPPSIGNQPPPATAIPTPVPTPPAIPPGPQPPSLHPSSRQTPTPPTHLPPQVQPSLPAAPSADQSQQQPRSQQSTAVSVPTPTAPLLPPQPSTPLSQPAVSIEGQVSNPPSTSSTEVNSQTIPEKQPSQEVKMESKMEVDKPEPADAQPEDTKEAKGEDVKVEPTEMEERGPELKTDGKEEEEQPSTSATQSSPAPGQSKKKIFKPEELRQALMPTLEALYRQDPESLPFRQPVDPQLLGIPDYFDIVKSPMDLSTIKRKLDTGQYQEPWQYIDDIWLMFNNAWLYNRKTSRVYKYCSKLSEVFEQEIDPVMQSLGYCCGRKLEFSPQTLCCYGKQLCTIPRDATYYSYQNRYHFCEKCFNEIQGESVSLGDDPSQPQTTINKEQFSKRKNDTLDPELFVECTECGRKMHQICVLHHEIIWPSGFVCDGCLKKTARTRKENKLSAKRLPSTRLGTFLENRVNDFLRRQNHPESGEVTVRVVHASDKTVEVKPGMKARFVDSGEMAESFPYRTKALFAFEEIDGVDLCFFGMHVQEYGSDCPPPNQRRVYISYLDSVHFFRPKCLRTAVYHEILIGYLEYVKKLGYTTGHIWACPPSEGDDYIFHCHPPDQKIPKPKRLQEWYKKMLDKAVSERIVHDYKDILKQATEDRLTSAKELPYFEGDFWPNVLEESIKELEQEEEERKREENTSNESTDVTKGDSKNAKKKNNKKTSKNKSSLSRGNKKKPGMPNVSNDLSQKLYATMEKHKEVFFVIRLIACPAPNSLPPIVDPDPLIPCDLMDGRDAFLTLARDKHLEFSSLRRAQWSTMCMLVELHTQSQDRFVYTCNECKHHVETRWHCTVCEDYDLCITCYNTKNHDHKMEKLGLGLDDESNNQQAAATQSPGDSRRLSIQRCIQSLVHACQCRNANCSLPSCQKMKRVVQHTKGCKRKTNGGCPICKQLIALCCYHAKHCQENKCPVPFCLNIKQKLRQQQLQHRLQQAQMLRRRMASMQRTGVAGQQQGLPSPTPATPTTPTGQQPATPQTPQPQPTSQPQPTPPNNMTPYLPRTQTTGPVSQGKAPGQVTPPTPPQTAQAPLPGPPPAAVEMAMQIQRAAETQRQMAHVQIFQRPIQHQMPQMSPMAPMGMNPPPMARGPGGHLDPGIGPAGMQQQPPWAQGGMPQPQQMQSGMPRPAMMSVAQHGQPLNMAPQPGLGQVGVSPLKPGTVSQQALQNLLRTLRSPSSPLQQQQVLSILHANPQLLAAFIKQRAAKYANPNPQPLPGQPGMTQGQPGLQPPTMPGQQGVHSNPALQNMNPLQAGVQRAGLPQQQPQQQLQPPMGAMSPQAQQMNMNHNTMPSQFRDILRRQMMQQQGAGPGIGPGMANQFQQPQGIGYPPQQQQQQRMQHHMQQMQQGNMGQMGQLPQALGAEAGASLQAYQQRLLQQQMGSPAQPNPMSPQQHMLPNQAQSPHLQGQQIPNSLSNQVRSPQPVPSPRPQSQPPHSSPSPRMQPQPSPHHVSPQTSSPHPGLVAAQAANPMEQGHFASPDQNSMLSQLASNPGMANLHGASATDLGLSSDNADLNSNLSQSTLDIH

COc1cccc(CNC(=O)N2C3CN(Cc4cc(Cl)cc(Cl)c4N(C)C)C(=O)[C@H](Cc4ccc(O)cc4)N3C(=O)CN2C)c1OC (stereo partly shown) [YH250]
IC50 [1]: > 20 µM
p300/γ-catenin interaction [2]: inhibits p300/γ-catenin interaction
CD48posit cells vs DMSO ([3]; p=0.010): significantly less
non-differentiated CD48negt/CD202bposit cells vs DMSO ([3]; p=0.04): significantly more
human CD34+ cells in bone marrow vs DMSO treated cells ([4]; in vitro treated cells): more human CD34+ cells in bone marrow
donor cell engraftment in blood ([4]; pre-incubation in vitro 24 hours before BMT): best engraftment in blood
BrdU positive cells in LTR-HSC [5]: more BrdU positive cells
bone marrow cells in S phase ([6]; 7Gy irradiation): more bone marrow cells in S phase
HSPC (L−CD48−CD150+ cells) ([6]; 7Gy, 4 days after administration): increased HSPC
BrdU positive cells in lineage negative (Lin) population ([6]; 7Gy, s.c., 2 mg/Kg 24 hours post radiation): more BrdUpost cells
blood cell count at nadir points vs DMSO [7]: significantly higher
blood count recovery (full lineage) [7, 8]: Accelerated blood count recovery
body weight [7, 8]: very little weight drop
